According to ChEMBL document CHEMBL1212937, “Effect of synthetic peptides belonging to E2 envelope protein of GB virus C on human immunodeficiency virus type 1 infection” (J Med Chem, 2010):
Peptide text beside a SMILES is read from it.

Tests used:
[1] = system: Human immunodeficiency virus 1; experiment: Antiviral activity against R5 tropic HIV1 HXB2 infected in human TZM-bl cells assessed as inhibition of virus-induced cytopathic effect; assay type: functional, organism-based; conditions: for IC50: Human immunodeficiency virus 1, HXB2, TZM-bl
HeLa = experiment: (§1) Inhibition of HIV1 gp41-induced cell-cell fusion between viral envolop expressing human HeLa cells to CD4 receptor expressing TZM-bl cells; assay type: cell-based; conditions: Human immunodeficiency virus 1
[2] = as §1; assay type: cell-based, Human immunodeficiency virus 1
[3] = system: Human immunodeficiency virus 1; experiment: Antiviral activity against R5 tropic HIV1 BAL infected in human PBMC cells assessed as concentration at which p24 antigen produced after 7 days by ELISA; assay type: functional
[4] = system: Human immunodeficiency virus 1; experiment: Antiviral activity against R5 tropic HIV1 BAL infected in human TZM-bl cells assessed as inhibition of virus-induced cytopathic effect; assay type: functional, organism-based; conditions: for IC50: Human immunodeficiency virus 1, BAL
[5] = system: Human immunodeficiency virus 1; experiment: Antiviral activity against R5X4 tropic HIV1 69/7 infected in human TZM-bl cells assessed as inhibition of virus-induced cytopathic effect; assay type: functional, organism-based; conditions: for IC50: Human immunodeficiency virus 1, 69/7, TZM-bl
[6] = system: Human immunodeficiency virus 1; experiment: Antiviral activity against R5 tropic HIV1 HXB2 infected in human PBMC cells assessed as concentration at which p24 antigen produced after 7 days by ELISA; assay type: functional
[7] = system: Human immunodeficiency virus 1; experiment: Inhibition of HIV1 gp41 fusion peptide at compound to fusion peptide ratio of 5 by fluorimetry
[8] = Inhibition of HIV1 gp41 fusion by surface plasmon resonance; design: species or system Human immunodeficiency virus 1
[9] = Inhibition of HIV1 gp41 fusion by isothermal titration; design: species or system Human immunodeficiency virus 1

Row | Compound | inhibition [1] | IC50 [1] [µM] | inhibition (HeLa) | IC50 [2] [µM] | Activity [3] [µM] | inhibition [4] | IC50 [4] [µM] | inhibition [5] | IC50 [5] [µM] | Activity [6] [µM] | inhibition [7] [%] | Kd [8] [µM] | Kd [9] [µM] | IC50 (HeLa) [µM]
1 | CC[C@H](C)[C@H](NC(=O)[C@H](C)NC(=O)[C@H](CCC(N)=O)NC(=O)[C@@H](CS)NC(=O)[C@H](Cc1ccccc1)NC(=O)[C@H](C)NC(=O)[C@@H]1CCCN1C(=O)[C@@H](N)CC(C)C)C(=O)NCC(=O)N[C@@H](Cc1c[nH]c2ccccc12)C(=O)NCC(=O)N[C@@H](CC(=O)O)C(=O)N1CCC[C@H]1C(=O)N[C@H](C(=O)N[C@H](C(=O)N[C@@H](Cc1cnc[nH]1)C(=O)N[C@@H](Cc1c[nH]c2ccccc12)C(=O)N[C@@H](CO)C(=O)O)[C@@H](C)O)[C@@H](C)CC | Dose-dependent effect | 46 | Dose-dependent effect | 370 | 15.6 | Dose-dependent effect | 194 | Dose-dependent effect | 71.4 | 15.6 | – | – | – | –
2 | CC(C)C[C@H](NC(=O)[C@H](CC(=O)O)NC(=O)[C@H](CCCCN)NC(=O)[C@@H](NC(=O)[C@H](CC(C)C)NC(=O)[C@H](CCCCN)NC(=O)[C@@H]1CCCN1C(=O)CNC(=O)[C@H](C)NC(=O)CNC(=O)[C@H](CS)NC(=O)[C@H](CCCNC(=N)N)NC(=O)[C@H](Cc1cnc[nH]1)NC(=O)[C@H](Cc1ccccc1)NC(=O)[C@@H]1CCCN1C(=O)[C@H](Cc1ccccc1)NC(=O)[C@@H](N)CCCNC(=N)N)[C@H](C)O)C(=O)N[C@@H](CCC(=O)O)C(=O)O | – | – | Dose-dependent effect | 530 | – | – | – | – | – | – | 56.3 | – | – | –
3 | CC[C@H](C)[C@H](NC(=O)[C@H](CS)NC(=O)[C@@H](NC(=O)[C@H](C)NC(=O)[C@H](CS)NC(=O)[C@@H]1CCCN1C(=O)[C@@H](NC(=O)CNC(=O)[C@H](Cc1c[nH]c2ccccc12)NC(=O)[C@H](CCC(=O)O)NC(=O)[C@H](CO)NC(=O)[C@H](CC(C)C)NC(=O)[C@H](CCC(=O)O)NC(=O)[C@@H](NC(=O)[C@@H](NC(=O)[C@@H](NC(=O)[C@@H](N)CC(=O)O)[C@@H](C)O)C(C)C)C(C)C)C(C)C)[C@@H](C)O)C(=O)N[C@@H](CC(C)C)C(=O)O (H-DTVVELSEWGVPCATCIL-OH) | Dose-dependent effect | 39.9 | Dose-dependent effect | 429 | 31.2 | Dose-dependent effect | 463 | Dose-dependent effect | 24.1 | 7.8 | – | – | – | –
4 | CC(C)C[C@H](NC(=O)[C@H](CC(C)C)NC(=O)[C@@H](NC(=O)[C@@H](NC(=O)[C@H](CC(N)=O)NC(=O)CNC(=O)[C@H](CCCNC(=N)N)NC(=O)[C@H](CC(=O)O)NC(=O)[C@H](Cc1c[nH]c2ccccc12)NC(=O)[C@@H](NC(=O)[C@H](CCCCN)NC(=O)[C@H](CCC(=O)O)NC(=O)CNC(=O)[C@@H](N)[C@@H](C)O)C(C)C)C(C)C)[C@@H](C)O)C(=O)N[C@@H](CS)C(=O)N[C@@H](CC(=O)O)C(=O)N[C@@H](CS)C(=O)N1CCC[C@H]1C(=O)O (H-TGEKVWDRGNVTLLCDCP-OH) | Dose-dependent effect | 162 | Dose-dependent effect | 440 | 62.5 | Dose-dependent effect | 484 | Dose-dependent effect | 209 | 31.2 | 52.9 | 25.2 | 33.3 | –
5 | CC[C@H](C)[C@H](NC(=O)[C@H](CS)NC(=O)[C@@H](NC(=O)[C@H](C)NC(=O)[C@H](CS)NC(=O)[C@@H]1CCCN1C(=O)[C@@H](NC(=O)CNC(=O)[C@H](Cc1c[nH]c2ccccc12)NC(=O)[C@H](CCC(=O)O)NC(=O)[C@H](CO)NC(=O)[C@H](CC(C)C)NC(=O)[C@H](CCC(=O)O)NC(=O)[C@@H](N)C(C)C)C(C)C)[C@@H](C)O)C(=O)N[C@@H](CC(C)C)C(=O)N[C@@H](CC(=O)O)C(=O)N[C@@H](CCCNC(=N)N)C(=O)N[C@@H](CCCNC(=N)N)C(=O)O (H-VELSEWGVPCATCILDRR-OH) | Dose-dependent effect | 58.6 | Dose-dependent effect | 331 | 7.8 | Dose-dependent effect | 140 | Dose-dependent effect | 20.1 | 7.8 | – | – | – | –
6 | C[C@@H]1[C@H](O)[C@@H](C)/C=C/C=C/C=C/C=C/C=C/C=C/C=C/[C@H](O[C@@H]2O[C@H](C)[C@@H](O)[C@H](N)[C@@H]2O)C[C@@H]2O[C@](O)(C[C@@H](O)C[C@@H](O)[C@H](O)CC[C@@H](O)C[C@@H](O)CC(=O)O[C@H]1C)C[C@H](O)[C@H]2C(=O)O [AMPHOTERICIN B] | – | 0.175 | – | – | – | – | 0.136 | – | – | – | – | – | – | –
7 | H-FCQAIGWGDPITHWSHGQ-OH | Dose-dependent effect | 70.1 | Dose-dependent effect | 348 | 15.6 | Dose-dependent effect | 126 | Dose-dependent effect | 111 | 7.8 | – | – | – | –
8 | H-GRPDGFIHVQGHLQEVDA-OH | – | – | – | – | – | – | – | – | – | – | 17.9 | 17.6 | 20 | –
9 | H-HGQNRWPLSCPQYVYGSV-OH | – | – | Dose-dependent effect | – | – | – | – | – | – | – | – | – | – | 304
10 | H-LQEVDAGNFIPPPRWLLL-OH | Dose-dependent effect | 37.5 | Dose-dependent effect | 687 | 15.6 | Dose-dependent effect | 295 | Dose-dependent effect | 60.8 | 7.8 | – | – | – | –
11 | H-LVRRRSELMGRRNPVCPG-OH | – | – | Dose-dependent effect | 538 | – | – | – | – | – | – | 46 | 22.4 | 39.6 | –
12 | H-PITHWSHGQNRWPLSCPQ-OH | – | – | Dose-dependent effect | 509 | – | – | – | – | – | – | – | – | – | –
13 | H-SDRDTVVELSEWGVPCAT-OH | Dose-dependent effect | 48.8 | Dose-dependent effect | 141 | 62.5 | Dose-dependent effect | 506 | Dose-dependent effect | 43.7 | 31.2 | 59 | 58.6 | 63.6 | –
14 | H-SWFASTGGRDSKIDVWSL-OH | Dose-dependent effect | 237 | – | – | 7.8 | Dose-dependent effect | 411 | Dose-dependent effect | 119 | 62.5 | – | – | – | –
15 | H-WVNQLAVLGLPAVDAAVA-OH | Dose-dependent effect | – | Dose-dependent effect | 333 | 15.6 | Dose-dependent effect | 94.7 | Dose-dependent effect | – | 7.8 | – | – | – | –
